Peptide text beside a SMILES is read from it. * marks the point of attachment. Cbz = O=C(OCc1ccccc1)*; CH2F = FC*
Columns and labels:
immature B cells [1] = test: BCR-induced mitochondrial depolarization, JC-1 staining; assay type: cell-based, mouse; conditions: 50 mM inhibitor, anti-IgM
Description: Mature and immature B cells (>95% B220+) were isolated from untreated mice or sublethally irradiated mice by complement-mediated lysis and Percoll gradient as described previously, and cultured in RPMI 1640 media containing 10% fetal calf serum (FCS) (Cellgro), 1% penicillin, 1% streptomycin (both Life Sciences BRL), and 50 uM b-mercaptoethanol (Sigma). For caspase experiments, 2×10^6/ml B cells were plated per well in 24-well polystyrene flat-bottom plates (Corning) in 1000 ul of total culture volume. The following combinations of agents were added for 12 hr or 24 hr at 37° C.: 10 mg/ml of goat anti-mouse IgM F(ab)2 (anti-IgM, Jackson ImmunoResearch Laboratories), 50 mM of z-VAD-fmk, a pan-caspase inhibitor, or 50 mM of z-LEHD-fmk, a specific […], or 50 mM of z-FA-fmk, a cathepsin B inhibitor (Enzyme System Products). For the PI3K assay, 5×10^6 B cells were plated per well in 24-well polystyrene flat-bottom plates (Corning) in 2 ml final culture volume, with 10 mg/ml of goat anti-mouse IgM F(ab′)2 added for the indicated time at 37° C. […]
Cells were cultured at a density of 0.5−1.0×10^6 cells/ml. […] The dye exists as a monomer at low concentrations and yields green fluorescence, similar to fluorescein. […] The cell pellet was then resuspended in PBS, and JC-1 fluorescence analyzed by FACS.

[2] = test system: Pten-mutant and control B cells; test: Mitochondrial potential by JC-1 staining; assay type: cell-based, mouse; conditions: anti-IgM treatment, within 12 hours
Description: B cells were cultured to a density of 0.5−1.0×10^6 cells/ml. For each condition, 1 ml of cells was treated with the appropriate agent for the appropriate length of time as shown in FIG. 8C. Mitochondrial potential was assessed by using the fluorescent potentiometric dye JC-1 (5,5′,6,6′,-tetrachloro-1,1′,3,3′-tetraethylbenzimidazolylcarbocyanine iodide, Molecular Probe). JC-1 is a novel cationic carbocyanine dye that accumulates in mitochondria. The dye exists as a monomer at low concentrations and yields green fluorescence, similar to fluorescein. […] These characteristics make JC-1 a sensitive marker for mitochondrial membrane potential. Briefly, 0.3 ml of the cells were mixed with 0.3 ml of staining solution (complete medium containing 0.5 μg/1 ml JC-1). Cells were stained for 30 min in a 37° C. incubator (5% CO2). After staining, cells were collected at room temperature and washed once in 1×PBS. The cell pellet was then resuspended in PBS (pre-warmed to 37° C.), and JC-1 fluorescence was analyzed on a Becton-Dickinson FACS using Cell-Quest software.

Pten-mutant B cells = test: Proliferation and survival assays (CFSE, propidium iodide staining) with anti-IgM; assay type: cell-based, mouse; conditions: for division of Pten-mutant cells: 3 days of stimulation with BCR signal, CFSE
Source text: Pten(+/−) mice and Pten^flox/+ mice (background strain C57/BL6) were provided by Dr. Pandolfi PP (Di Cristofano et al., 1999 Science 285:2122). To generate B cell-specific Pten-deficient mice, Pten^flox/+ mice were crossed with CD19^cre/+ transgenic mice (purchased from Jackson lab). Offspring carrying CD19^cre/+ and the floxed Pten mutation on both alleles (Pten^flox/flox CD19^Cre/+), and the wild-type Pten gene (Pten^+/+ CD19^Cre/+) were used for analysis as homozygous mutant, wild-type mice, respectively. The mice were maintained under specific pathogen-free conditions in the animal colony of Weill Medical college of Cornell University. Pten^flox/flox CD19^Cre/+ mice were crossed with c-Rel-deficient mice (Tumang et al., 1998 Eur J Immunol 28:4299) to generate the double deficient mice.
For propidium iodide staining assay, B-cells were cultured in 10 μg/ml anti-IgM or 10 μg/ml anti-CD40 or 10 μg/ml LPS. At the indicated time points, cells were collected and stained with a solution containing 50 μg/ml propidium iodide, 20 ng/ml RNase A, 0.1% Triton X-100, and 0.1% sodium citrate. Duplicate samples were then analyzed on a Becton-Dickinson FACS using Cell-Quest software, and the percentage of apoptotic cells (<2N DNA content) or S and G2/M phase cells (>2N DNA content) quantified. For ^3H-thymidine incorporation assays, B-cells were plated at 1×10^5 cells per well in 96-well U-bottomed plates and cultured in complete media containing RPMI 1640, 10% heat inactivated FCS (DeWned; Hyclone, Logan, Utah), 2 mM L-glutamine, 1 mM non-essential amino acids, 100 μg/ml, penicillin/streptomycin, and 5×10^−5 M/L^−1 mercaptoethanol at 37° C. and 5% CO2. Where indicated, cells were stimulated with 10 μg/ml goat anti-mouse IgM F(ab′)2 (anti-IgM, Jackson ImmunoResearch Laboratories), or 10 μg/ml anti-CD40 (mAb 1C 10), or 10 μg/ml LPS. Six hours prior to the indicated time points, cultures were incubated with 0.5 μCi/well thymidine (Amersham), and then harvested onto Whatman Filters to determine proliferative responses by thymidine incorporation. […]

immature B cells [3] = test: Anti-IgM induced apoptosis; assay type: cell-based, mouse; conditions: 50 mM inhibitor
Description: Mature and immature B cells (>95% B220+) were isolated from untreated mice or sublethally irradiated mice by complement-mediated lysis and Percoll gradient as described previously, and cultured in RPMI 1640 media containing 10% fetal calf serum (FCS) (Cellgro), 1% penicillin, 1% streptomycin (both Life Sciences BRL), and 50 uM b-mercaptoethanol (Sigma). For caspase experiments, 2×10^6/ml B cells were plated per well in 24-well polystyrene flat-bottom plates (Corning) in 1000 ul of total culture volume. […]
The following antibodies were used for FACS analysis: anti-CD24 (HSA), anti-CD21, anti-IgD, anti-IgM, and anti-B220 (RA3-6B2), labeled with R-phycoerythrin (PE), FITC or Allophyocyanin (APC), all purchased from Pharmigen. […] Duplicate samples were then analyzed by FACS (Becton-Dickinson) using CellQuest software, and the percentage of apoptotic cells (<2N DNA content) or S and G2/M phase cells (>2N DNA content) quantified. For PIP3 assays, PIP3 levels were measured using a biotin-labeled antibody against anti-PI-3,4,5-P3 (a gift from Dr. Paul Neilsen, Echelon, Salt Lake City, Utah) and FACS following a published protocol.

c-Rel (homodimer) [4] = molecular target: T1, c-Rel (homodimer) (Homo sapiens, UniProt Q04864 Q04864:2-619); test: FP; 10 nM probe; FP saturated at 128 nM c-Rel; Kd said to be larger than by EMSA but no number in text; abolished by GST-IkBa; conditions: tags: C-terminal His, E. coli BL-21 Lys (DE3); full-length or subdomain (not specified); chain copies: 2 stated; label: 5'-FITC
T1 sequence: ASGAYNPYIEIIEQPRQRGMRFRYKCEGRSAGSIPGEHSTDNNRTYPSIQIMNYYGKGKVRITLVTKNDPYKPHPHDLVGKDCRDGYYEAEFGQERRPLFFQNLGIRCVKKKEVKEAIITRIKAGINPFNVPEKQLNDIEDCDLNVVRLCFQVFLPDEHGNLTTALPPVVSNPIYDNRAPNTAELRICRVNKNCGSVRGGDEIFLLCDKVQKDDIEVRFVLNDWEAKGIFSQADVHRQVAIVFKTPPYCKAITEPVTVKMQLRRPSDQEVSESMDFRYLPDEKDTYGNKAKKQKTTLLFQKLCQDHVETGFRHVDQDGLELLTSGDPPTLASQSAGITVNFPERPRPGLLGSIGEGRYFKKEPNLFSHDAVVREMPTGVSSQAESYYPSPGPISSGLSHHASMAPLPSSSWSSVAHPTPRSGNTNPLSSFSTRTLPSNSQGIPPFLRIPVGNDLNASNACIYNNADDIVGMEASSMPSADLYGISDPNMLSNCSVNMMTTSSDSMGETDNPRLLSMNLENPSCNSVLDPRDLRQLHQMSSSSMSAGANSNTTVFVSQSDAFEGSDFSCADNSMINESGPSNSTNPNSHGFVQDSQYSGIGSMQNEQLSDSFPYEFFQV
Description: (§1) According to the EMSA data, the concentrations of FITC-labeled DNA probe and c-Rel protein used in FP screen assay were optimized. Initially, the fluorescently labeled probe was added in different concentrations (5 nM, 10 nM, 100 nM) while c-Rel protein concentration (2000 nM) was constant, and the reactions were incubated for 15-30 minutes at room temperature, and then transferred to the wells of 384-well plate (20 μl/well). The FP values were measured using FUSION Universal Microplate Analyzer (Perkin Elmer, PE). […] In most cases, there is an increase in FP, with FP signals saturated in the presence of 128 nM of c-Rel. The dissociation constant (Kd) calculated using this method is larger than that observed using EMSA.
It was next investigated whether this assay could detect a known endogenous inhibitor (IkBα) of c-Rel activity. […] Recombinant GST-IkBα previously generated (final concentration is 150 nM) was added to a binding reaction consisting of 10 nM FITC-CD28RE and 100 nM c-Rel. […] Thus, this assay detected specific inhibitors that function by directly binding c-Rel protein and inducing a conformation change. Moreover, consistent with the scatter data distribution shown in FIG. 3d, z factor, one assay performance indicator, was also evaluated. […]

c-Rel (homodimer) [5] = molecular target: T1, c-Rel (homodimer); test: competition; unlabeled CD28RE returns FP to basal level at 128 nM; conditions: tags: C-terminal His, E. coli BL-21 Lys (DE3); full-length or subdomain (not specified); chain copies: 2 stated
Description: as §1
To exclude the possibility that non-specific interaction of c-Rel protein with DNA molecules contributes to the increase in FP value, a cold competition experiment was performed. […] However, a control DNA molecule, the unlabeled Oct1 (20 mers) in the same conditions as applied to the cold CD28RE probe, had no effect on FP value. Thus, this assay specifically and quantitatively measured interactions in the interface between c-Rel protein and CD28 RE.

## COC(=O)CC[C@H](NC(=O)[C@H](CC(C)C)NC(=O)OCc1ccccc1)C(=O)N[C@@H](Cc1cnc[nH]1)C(=O)N[C@@H](CC(=O)OC)C(=O)CF [z-LEHD-fmk] (Cbz-LE(OMe)HD(OMe)-CH2F)
Immature B cells [1]
  BCR-induced changes in DY (mitochondrial membrane potential): Neither inhibitor reversed

## COC(=O)C[C@H](NC(=O)[C@H](C)NC(=O)[C@@H](NC(=O)OCc1ccccc1)C(C)C)C(=O)CF [z-VAD-fmk] (Cbz-Val-Ala-Asp(OMe)-CH2F)
Immature B cells [1]
  BCR-induced changes in DY (mitochondrial membrane potential): Neither inhibitor reversed

## Cc1ccc(S(=O)(=O)/C=C/C#N)cc1 [Bay 11]
[2]
  mitochondrial depolarization: mitochondrial depolarization
Pten-mutant B cells
  division of Pten-mutant cells: completely blocked
Pten-mutant B cells; propidium iodine staining
  cell apoptosis: significant cell apoptosis

## CC(NC(=O)[C@H](Cc1ccccc1)NC(=O)OCc1ccccc1)C(=O)CF (stereo partly shown) [z-FA-fink]
Immature B cells [3]
  anti-IgM induced apoptosis: failed to inhibit

## CC(C)C[C@H](NC(=O)[C@H](Cc1ccccc1)NC(=O)c1cnccn1)B(O)O [Velcade]
[2]
  mitochondrial depolarization: mitochondrial depolarization
Pten-mutant B cells
  division of Pten-mutant cells: completely blocked

B1: CD28RE kB site 20-mer FITC probe (dsDNA)
DNA 1: TCTGGAATTTCTTTAAACCC
DNA 2: GGGTTTAAAGAAATTCCAGA
c-Rel (homodimer) [4]
  binding result: binds

B2: CD28RE EMSA probe/unlabeled competitor (dsDNA)
DNA 1: TCTGGAATTTCTTTAAACCC
DNA 2: GGGTTTAAAGAAATTCCAGA
c-Rel (homodimer) [5]
  binding result: binds

— patent US20100055116A1, “Methods and Compositions for Targeting c-Rel” (priority 2006, published 2010)
